Assay results as given in patent US5426106A, “Pyrrolo-pyridazinone derivatives” (Merck Sharp & Dohme Limited, priority 1992, dated 1995).

Experiments:
[1] = target: T1, strychnine-insensitive site present on the NMDA receptor (Rattus norvegicus, UniProt P35439); assay: Displacement of 3H-L-689,560 binding to the strychnine-insensitive site of rat forebrain membranes; details: 3H-L-689,560, rat forebrain membranes; read-out: concentration required to displace 50% of the specific binding (IC50)
T1 construct: NMDA receptor of rat forebrain membranes; from tissue; host or cells: rat forebrain membranes
Excerpt: (§1) The compounds useful in this invention potently and selectively block responses to NMDA and/or AMPA in a brain slice from rat cortex, and inhibit the binding of agonists and antagonists to the strychnine-insensitive site present on the NMDA receptor and/or AMPA binding to rat forebrain membranes.
The ability of test compounds to displace ^3 H-L-689,560 (trans-2-carboxy-5,7-dichloro-4-phenylaminocarbonylamino-1,2,3,4-tetrahydroquinoline) binding to the strychnine-insensitive site present on the NMDA receptor of rat forebrain membranes can be determined by the method of Grimwood et al., Proceedings of The British Pharmacological Society, July 1991, Abstract C78.

NMDA receptors = assay: Cortical slice studies, responses to NMDA in rat cortical slice; assay type: cell-based; details: from righthand shift in NMDA concentration-response curves, read-out: apparent equilibrium constant (Kb) in response to NMDA
Excerpt: as §1
The effects of compounds of the invention on responses to NMDA and AMPA can be assessed using the rat cortical slice as described by Wong et al., Proc. Natl. Acad. Sci. USA, 1986, 83, 7104. The apparent equilibrium constant (Kb) is calculated from the righthand shift in the NMDA or AMPA concentration-response curves produced by the compound under test.

O=c1[nH]n2cccc2c(O)c1-c1ccccc1 [Example 1, 4-Hydroxy-3-phenylpyrrolo[1,2-b]pyridazin-2(1H)-one]
IC50 [1]: < 50 µM | Kb (NMDA receptors): < 150 µM
